The test system of assay [1] is hUC-MSCs. Description: CFU-F assay of hUC-MSCs. Type of assay: cell-based, human. The settings on record: 125 or 250 μg/mL AA2G, three days. The method, then: The inventors observed an effect of the material on stem cells by treating each stem cells with a material for enhancing a glutathione evaluation parameter. When hUC-MSCs were subcultured in a L-AA2G-containing medium, CFU-F, migration capacity, and an anti-inflammatory effect were observed. A CFU-F assay (n=3) was performed by treating hUC-MSCs with 125 or 250 μg/mL of AA2G for three days. As shown in FIGS. 16A and 16B, it was confirmed that, when AA2G was treated, CFU-F increased. In addition, as hUC-MSCs were treated with 125 or 250 μg/mL of AA2G for three days, PDGF-AA-induced migration capacity (n=3) was analyzed. As shown in FIGS. 17A and 17B, it was confirmed that the migration capacity was increased by AA2G treatment. In addition, the reduction in T cell proliferation, a reduction in T cell differentiation, and the promotion of Treg cell differentiation were observed by treating hUC-MSCs with 125 or 250 μg/mL of AA2G for three days. […] Meanwhile, hUC-MSCs were cultured with a glutathione precursor such as γ-glutamyl cysteine (GGC, 0.1, 0.25, and 0.5 mM). A CFU-F assay (n=3) was performed by treating hUC-MSCs with each concentration of GGC for 2 hours. […] In addition, SDF1α and PDGF-AA-induced migration capacities (n=3) were analyzed for hUC-MSCs without treatment with GGC, and SDF1α- and PDGF-AA-induced migration abilities (n=3) were analyzed by treating hUC-MSCs with the increasing concentrations of GGC. STI571 was used as a PDGFR kinase inhibitor. As shown in FIGS. 20A to 20C, it was confirmed that, according to an increase in GGC treatment concentration, SDF1α- and PDGF-AA-induced migration capacities were enhanced. A CFU-F assay (n=3) was performed by treating hUC-MSCs with 0.2, 1, 2, and 4 μM ferrostatin-1 and 0.1, 0.5, 1, and 2 μM liproxstatin-1 for 24 hours.

The subject of assay [2] is hUC-MSCs. The assay can be described thus: Oxidative stress resistance capacity (ORC) analysis with RSL3. Type of assay: cell-based, human. The settings on record: hUC-MSCs subcultured three times with AA2G 250 μg/mL, vs naive cell group (NC). The method, then: In addition, GH is calculated as the coefficient of variation or robust coefficient of variation of cellular FR. GRC refers to a value obtained by real-time monitoring of FR after living cells are treated with an oxidizing agent, as calculated by dividing a value obtained by subtracting AUC of a group treated with 0.1-100 mM N-ethylmaleimide (NEM) from FR AUC of an oxidizing agent (diamide, H2O2, etc.)-treated group by a value obtained by subtracting the AUC of NEM-treated group from AUC of the untreated control, and multiplying the resulting value by 100. The FR of the NEM-treated group is a value for increasing the sensitivity of a GRC value by treating it as the blank value of the FR of the cells of interest. […] To remove the MitoFreSH-Tracer from the medium before measurement, the medium was exchanged with fresh 10 mM HEPES-containing HBSS, and a fluorescence image was obtained using a confocal imaging system, Operetta. By comparing GSH levels quantified from control cells not treated with RSL3 or control cells before treated with RSL3, the distribution of GSH expression-changed cells was calculated. Based on the point where the distribution histogram is divided into two peaks, the cells were divided into GSH^High cells (right peak) and GSH^Low cells (left peak), and then a ratio of corresponding cells was expressed as a percentage (%). […]

Consider `O=C1O[C@H]([C@@H](O)CO)C(O)=C1O[C@H]1O[C@H](CO)[C@@H](O)[C@H](O)[C@H]1O` [AA2G, ascorbic acid 2-glucoside], for which, in the assay on hUC-MSCs [1], the CFU-F result is “increased”. For the same compound, the “FreSH-Tracer-based ORC (GSH^High cells)” value in the assay on hUC-MSCs [2] is “higher”.

Source of the values: patent US11841369B2, “Method for improving quality of therapeutic cell through real-time glutathione measurement” (CELL2IN, INC., priority 2017, dated 2023).
